Measured values: ChEMBL document CHEMBL5325456, “5-(4-Hydroxyphenyl)-3H-1,2-dithiole-3-thione derivatives of brefeldin A: Design, synthesis and cytotoxicity in MDA-MB-231 human breast cancer cells” (Bioorg Med Chem, 2023)

Experiments:
[1] = tested on: MDA-MB-231; assay: Antiproliferative activity against human MDA-MB-231 cells assessed as reduction in cell viability incubated for 48 hrs by CCk-8 assay; type: functional, cell-based; settings: MDA-MB-231, 48 h
[2] = Antiproliferative activity against human L02 cells assessed as reduction in cell viability incubated for 48 hrs by CCk-8 assay; type: toxicity, cell-based
[3] = tested on: MDA-MB-231; assay: Induction of cell cycle arrest in human MDA-MB-231 cells assessed as accumulation of cells at G1 phase at 82.5 nM incubated for 48 hrs by flow cytometry analysis (reference value: 47.44 %); type: functional
[4] = tested on: MDA-MB-231; assay: Induction of cell cycle arrest in human MDA-MB-231 cells assessed as accumulation of cells at G2 phase at 82.5 nM incubated for 48 hrs by flow cytometry analysis (reference value: 16.05 %); type: functional
[5] = tested on: MDA-MB-231; assay: Induction of apoptosis in human MDA-MB-231 cells assessed as early apoptotic cells at 0.165 uM incubated for 48 hrs by Annexin-V/FITC-PI staining based flow cytometry analysis (reference value: 2.93 %); type: functional
[6] = tested on: MDA-MB-231; assay: Induction of apoptosis in human MDA-MB-231 cells assessed as necrotic cells at 0.165 uM incubated for 48 hrs by Annexin-V/FITC-PI staining based flow cytometry analysis (reference value: 0.99 %); type: functional
[7] = tested on: MDA-MB-231; assay: Induction of apoptosis in human MDA-MB-231 cells assessed as early apoptotic cells at 0.33 uM incubated for 48 hrs by Annexin-V/FITC-PI staining based flow cytometry analysis (reference value: 2.93 %); type: functional
[8] = tested on: MDA-MB-231; assay: Inhibition of cell migration in human MDA-MB-231 cells assessed as wound healing rate at 82.5 nM measured immediately by scratch wound healing assay (Rvb= 871.53 +/- 3.02 %); type: functional; parameters: scale not given: the % may be the effect or the level left
[9] = tested on: MDA-MB-231; assay: Inhibition of cell migration in human MDA-MB-231 cells assessed as wound healing rate at 0.165 uM measured immediately by scratch wound healing assay (Rvb= 871.53 +/- 3.02 %); type: functional; parameters: scale not given: the % may be the effect or the level left
[10] = tested on: MDA-MB-231; assay: Inhibition of cell migration in human MDA-MB-231 cells assessed as wound healing rate at 0.165 uM measured for 24 hrs by scratch wound healing assay (Rvb= 230.22 +/- 32.21 %); type: functional; parameters: scale not given: the % may be the effect or the level left
[11] = tested on: MDA-MB-231; assay: Inhibition of cell invasion in human MDA-MB-231 cells incubated for 24 hrs by crystal violet staining based transwell assay; type: functional; settings: dose 82.5-330 nM

Question: For `C[C@H]1CCC/C=C/[C@@H]2C[C@H](O)C[C@H]2[C@H](OC(=O)CCCC(=O)OCCOc2ccc(-c3cc(=S)ss3)cc2)/C=C/C(=O)O1`, which IC50 [1] is on record?
Answer: 330 nM

Question: What about the IC50 at 48 h [2] of the same compound?
Answer: 1750 nM

Question: And the Activity [3]?
Answer: 56.27%

Question: And the Activity [4]?
Answer: 13.5%

Question: What about the Activity [5] of the same compound?
Answer: 10.14%

Question: And the Activity [6]?
Answer: 1.87%

Question: What about the Activity [7] of the same compound?
Answer: 21.05%

Question: And the Activity [8]?
Answer: 832.33%

Question: And the Activity [9]?
Answer: 830.55%

Question: And the Activity [10]?
Answer: 465.92%

Question: And the inhibition [11]?
Answer: Dose-Dependent Effect
